Tests used:
[1] = target: Human 5-HT Transporter (Homo sapiens, UniProt P31645); assay: Inhibition of 3H-5-HT Uptake by Cells Possessing the Human 5-HT Transporter (HC 5HT Transporter), Jar cells; conditions: HC-5HTC Transporter Ki (nM), Jar cells treated with staurosporine
[2] = target: 5-HT transporter (Rattus norvegicus, UniProt P31652); assay: Rat Brain 3H-Paroxetine Binding Assay (RB 5HT Transporter); conditions: read-out: RB-5HT Transporter % inhibition @ 1 μM concentration
[3] = target: T1, human 5-HT1A receptors (Homo sapiens, UniProt P08908); assay: Displacement of [3H] 8-OH-DPAT from the 5-HT1A serotonin receptor; assay type: binding; conditions: 1 μM concentration; starred cells of the 5-HT1A column
T1 construct: expressed in transfected cells; host or cells: CHO cells (stably transfected)
T1 sequence (P08908 1-422): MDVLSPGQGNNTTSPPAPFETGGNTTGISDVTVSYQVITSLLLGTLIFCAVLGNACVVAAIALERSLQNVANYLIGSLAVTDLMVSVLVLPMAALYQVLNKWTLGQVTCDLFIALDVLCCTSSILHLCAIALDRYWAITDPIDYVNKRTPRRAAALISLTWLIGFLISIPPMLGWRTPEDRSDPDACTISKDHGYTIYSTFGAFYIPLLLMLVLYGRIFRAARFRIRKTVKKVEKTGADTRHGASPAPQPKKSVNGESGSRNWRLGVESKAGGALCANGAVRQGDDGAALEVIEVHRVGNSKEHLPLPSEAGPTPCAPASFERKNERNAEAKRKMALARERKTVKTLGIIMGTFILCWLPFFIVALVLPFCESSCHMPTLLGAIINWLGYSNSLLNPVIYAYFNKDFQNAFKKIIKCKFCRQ

Human 5-HT Transporter, sequence (P31645 whole entry): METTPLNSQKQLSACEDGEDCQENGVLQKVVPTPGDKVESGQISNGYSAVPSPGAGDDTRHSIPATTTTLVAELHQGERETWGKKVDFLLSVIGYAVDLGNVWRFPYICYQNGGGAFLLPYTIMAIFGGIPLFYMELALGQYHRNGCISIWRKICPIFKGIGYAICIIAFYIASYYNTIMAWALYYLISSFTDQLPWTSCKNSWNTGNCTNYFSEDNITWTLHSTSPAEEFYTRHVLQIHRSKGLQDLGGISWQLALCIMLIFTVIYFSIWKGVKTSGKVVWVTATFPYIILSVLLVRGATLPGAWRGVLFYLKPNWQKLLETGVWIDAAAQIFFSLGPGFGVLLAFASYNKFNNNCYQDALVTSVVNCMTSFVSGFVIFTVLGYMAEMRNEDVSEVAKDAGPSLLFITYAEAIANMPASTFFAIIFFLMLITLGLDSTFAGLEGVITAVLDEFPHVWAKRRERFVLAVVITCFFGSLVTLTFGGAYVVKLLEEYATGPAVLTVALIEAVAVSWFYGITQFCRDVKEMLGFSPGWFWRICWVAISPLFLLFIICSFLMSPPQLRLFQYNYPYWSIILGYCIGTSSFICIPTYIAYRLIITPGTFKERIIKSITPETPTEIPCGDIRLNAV
5-HT transporter, sequence (P31652 whole entry): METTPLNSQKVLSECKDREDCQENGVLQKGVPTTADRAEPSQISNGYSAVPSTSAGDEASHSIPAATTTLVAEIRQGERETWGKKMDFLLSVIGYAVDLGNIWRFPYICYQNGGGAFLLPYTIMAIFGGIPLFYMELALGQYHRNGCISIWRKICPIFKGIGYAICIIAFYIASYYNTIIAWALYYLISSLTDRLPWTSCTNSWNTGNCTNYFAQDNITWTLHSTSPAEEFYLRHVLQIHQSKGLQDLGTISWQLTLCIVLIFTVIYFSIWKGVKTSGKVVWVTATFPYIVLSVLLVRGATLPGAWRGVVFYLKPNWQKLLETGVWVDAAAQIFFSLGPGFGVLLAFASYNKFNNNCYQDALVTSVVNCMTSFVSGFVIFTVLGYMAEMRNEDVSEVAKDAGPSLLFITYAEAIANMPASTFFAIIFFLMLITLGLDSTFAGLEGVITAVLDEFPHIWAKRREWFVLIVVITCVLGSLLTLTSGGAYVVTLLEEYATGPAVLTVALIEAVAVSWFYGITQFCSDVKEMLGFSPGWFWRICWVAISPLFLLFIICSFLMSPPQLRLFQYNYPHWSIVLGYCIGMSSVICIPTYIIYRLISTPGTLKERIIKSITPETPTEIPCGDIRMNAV

| Compound | Ki [1] [nM] | inhibition at 1 µM [2] [%] | inhibition at 1 µM [3] [%] | melting point [°C] |
| --- | --- | --- | --- | --- |
| Fc1cc(N2CCN([C@H]3CC[C@@H](c4csc5ccc(F)cc54)CC3)CC2)c2ncccc2c1 [Compound 47, 6-fluoro-8-{4-[4-cis(5-fluoro-1-benzothien-3-yl)cyclohexyl]piperazin-1-yl}quinoline] | 3490 | 25 |  |  |
| Clc1cc(N2CCN(CCc3coc4cc(Cl)ccc34)CC2)c2ncccc2c1 [Compound 7, 8-{4-[2-(6-chloro-1-benzofuran-3-yl)ethyl]-1-piperazinyl}-6-chloro-quinoline] | 2150 | 32 |  |  |
| Fc1ccc2scc([C@H]3CC[C@H](N4CCN(c5ccc(Cl)c6cccnc56)CC4)CC3)c2c1 [Compound 52, 5-chloro-8-{4-[4-trans(5-fluoro-1-benzothien-3-yl)cyclohexyl]piperazin-1-yl}quinoline] | 751 |  | 42 | 195 to 197 |
| COc1ccc2occ(CCN3CCN(c4cc(C(C)C)cc5cccnc45)CC3)c2c1 [Compound 24, 8-{4-[2-(5-methoxy-1-benzofuran-3-yl)ethyl]-1-piperazinyl}-6-isopropyl-quinoline] | 3730 | 24 | 46 |  |
